# From ChEMBL document CHEMBL1140963, “Naphthoquinoidal [1,2,3]-triazole, a new structural moiety active against Trypanosoma cruzi” (Eur J Med Chem, 2008)
# System: Trypanosoma cruzi
# Test: Antitrypanosomal activity against Trypanosoma cruzi Y trypomastigotes after 1 day
# Type: functional, organism-based
# Conditions: 24 h
row,SMILES,IC50 [µM]
1,CC1(C)OC2=C(C(=O)C(=O)c3ccccc32)C1n1cc(C2(O)CCCCC2)nn1 (centres undefined),57.8
2,CN(C)c1ccc(C(=C2C=CC(=[N+](C)C)C=C2)c2ccc(N(C)C)cc2)cc1 [GENTIAN VIOLET],536
3,CC1(C)OC2=C(C(=O)C(=O)c3ccccc32)C1n1cc(-c2ccccc2)nn1 (centres undefined),17.3
4,O=C(Cn1ccnc1[N+](=O)[O-])NCc1ccccc1 [BENZNIDAZOLE],104
5,CC1(C)OC2=C(C(=O)C(=O)c3ccccc32)C1n1cc(COC2CCCCO2)nn1 (centres undefined),257
6,CC(C)=CC1=C(O)C(=O)c2ccccc2C1=O,1280
7,CC1(C)OC2=C(C(=O)C(=O)c3ccccc32)C1N=[N+]=[N-] (centres undefined),50.2
8,CC1(C)OC2=C(C(=O)C(=O)c3ccccc32)C1n1cc(CO)nn1 (centres undefined),348
9,CC(C)(O)c1cn(C2C3=C(OC2(C)C)c2ccccc2C(=O)C3=O)nn1 (centres undefined),152
